# In PubChem BioAssay (NCI):
# Where “and” joins values, the source holds several entries; their conditions need not be identical. Equal entries are not always repeated.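 Five compound concentrations were applied to cells in 96-well plates for 48 hours; endpoints were derived by simple linear interpolation of the resulting dose-response curve. Here, GI50 denotes the concentration required for 50% inhibition of growth. At the TGI there is no net growth.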
# Columns and labels:
# Assay in all cases: growth of human tumour cells (NCI), 48 h
# CAKI-1 renal = system: CAKI-1 renal
# MDA-MB-435 = system: MDA-MB-435
# OVCAR-4 ovarian = system: OVCAR-4 ovarian
# OVCAR-5 ovarian = system: OVCAR-5 ovarian
# PC-3 prostate = system: PC-3 prostate
# RPMI-8226 leukemia = system: RPMI-8226 leukemia
# SF-295 CNS = system: SF-295 CNS
# SK-OV-3 ovarian = system: SK-OV-3 ovarian
# SNB-19 CNS = system: SNB-19 CNS
# HL-60(TB) leukemia = system: HL-60(TB) leukemia
Structure (SMILES),GI50 (CAKI-1 renal) [µM],TGI (CAKI-1 renal),GI50 (MDA-MB-435) [µM],TGI (MDA-MB-435) [µM],GI50 (OVCAR-4 ovarian) [µM],TGI (OVCAR-4 ovarian),GI50 (OVCAR-5 ovarian) [µM],TGI (OVCAR-5 ovarian),GI50 (PC-3 prostate) [µM],TGI (PC-3 prostate) [µM],GI50 (RPMI-8226 leukemia) [µM],TGI (RPMI-8226 leukemia) [µM],GI50 (SF-295 CNS) [µM],TGI (SF-295 CNS),GI50 (SK-OV-3 ovarian) [µM],TGI (SK-OV-3 ovarian),GI50 (SNB-19 CNS) [µM],TGI (SNB-19 CNS),GI50 (HL-60(TB) leukemia) [µM],TGI (HL-60(TB) leukemia)
COC(=O)c1ccc2c(c1)C(=O)c1c-2n(C)c(=O)c2cc(OC)c(OC)cc12,> 50,> 50 µM,> 50,> 50,> 50,> 50 µM,> 50,> 50 µM,> 50,> 50,> 50,> 50,34,> 50 µM,> 50,> 50 µM,> 50,> 50 µM,,
CC(=O)[CH-]C(=O)c1ccccc1.CC(=O)[CH-]C(=O)c1ccccc1.CC[C@H](/C=C/C(C)[C@H]1CCC2[C@@H]3CC=C4C[C@@H]([O-])CC[C@]4(C)C3CC[C@@]21C)C(C)C.CC[O-].[Ti+4] (stereo partly drawn),> 100,> 100 µM,,,> 100,> 100 µM,> 100,> 100 µM,,,> 100,> 100,> 100,> 100 µM,> 100,> 100 µM,> 100,> 100 µM,> 100,> 100 µM
CC1(C)CCCC(C)(C2CCC3(C)C2C(O)CC2C4(C)CCC(O)C(C)(C)C4C(O)CC23C)O1 (stereo not drawn),,17.6 µM,,30.3,,26 µM,,38.4 µM,,25.7,,,,24.7 µM,,32 µM,,25.5 µM,,5.44 µM
COC(=O)C[CH2][Ge]([CH3])([CH3])[S]c1ccccc1,40.2,79.1 µM,,,25.3,> 100 µM,29.5,> 100 µM,,,22.4,58.1,18,62.3 µM,23.5,67.8 µM,32.2,81.8 µM,12.2,31.4 µM
Clc1nc(Cl)c2c3c(sc2n1)CCCC3,> 100,> 100 µM,3.65,> 100,5.5,> 100 µM,> 100,> 100 µM,,,,,> 100,> 100 µM,> 100,> 100 µM,> 100,> 100 µM,> 27.4,> 100 µM
O=C(N/C(=C\c1ccc(/C=C(\NC(=O)c2ccccc2)c2nc3cc(Cl)ccc3[nH]2)cc1)c1nc2cc(Cl)ccc2[nH]1)c1ccccc1,,> 100 µM,,,,87 µM,,> 100 µM,,,,25.4,,> 100 µM,,> 100 µM,,> 100 µM,,
CSc1nc2c(nc(N)n2C2OC(COC(C)=O)C(OC(C)=O)C(OC(C)=O)C2OC(C)=O)c(=O)n1C (stereo not drawn),,> 100 µM,,,,> 100 µM,,> 100 µM,,,,> 100,,> 100 µM,,> 100 µM,,> 100 µM,,> 100 µM
Cn1c(=O)c2ccc(-c3ccc(Br)cc3)nc2n(C)c1=O,,,,,,> 100 µM,,> 100 µM,,,,> 100,,> 100 µM,,> 100 µM,,> 100 µM,,> 100 µM
C=C(C)C1CC=C(C)CC1 (stereo not drawn),> 100,> 100 µM and 1680 µM,,,> 100,> 100 µM and 2070 µM,> 100,> 100 µM and 2420 µM,,,,> 100,> 100,> 100 µM and 1630 µM,> 100,> 100 µM and 1900 µM,> 100,> 100 µM and 1870 µM,> 100,> 100 µM and 1720 µM
NC1=NN(c2ccccc2)C(=O)C1/C(=N\NC(=O)c1cc2ccccc2cc1O)C(=O)Nc1cccc(C(F)(F)F)c1 (stereo not drawn),,,,,,> 100 µM,,68.4 µM,,,,> 100,,> 100 µM,,,,> 100 µM,,27.6 µM
N.N.O=P([O-])([O-])CN(CCN(CP(=O)([O-])[O-])CP(=O)([O-])[O-])CP(=O)([O-])[O-].[Pt+2],> 100,> 100 µM,,,> 100,> 100 µM,> 100,> 100 µM,,,> 100,> 100,> 100,> 100 µM,> 100,> 100 µM,> 100,> 100 µM,> 100,> 100 µM
Cc1ccc(NC(=O)CC/C(CC(=O)C(C)(C)C)=N/NC(=O)C[N+](C)(C)C)cc1C,,> 100 µM,,,,> 100 µM,,> 100 µM,,,,,,> 100 µM,,> 100 µM,,> 100 µM,,> 100 µM
COc1cccc(NC(=O)C(C)(C)C)c1SSc1c(NC(=O)C(C)(C)C)cccc1OC,,> 60.3 µM,,,,> 56.3 µM,,53.2 µM,,,,51,,> 100 µM,,> 100 µM,,> 100 µM,,> 73.1 µM
C/C=C(/CCC1NCCC2c3ccccc3NC12)[Si](C)(C)C (stereo not drawn),,22.8 µM,,,,20.9 µM,,20 µM,,,,13.7,,29.1 µM,,29.1 µM,,29 µM,,4.36 µM
C[C@]12CCC[C@H](O)[C@H]1C[C@H](CO)CC2,,> 100 µM,,,,> 100 µM,,> 100 µM,,,,> 100,,> 100 µM,,> 100 µM,,> 100 µM,,> 100 µM
COc1cc(/C=C2\Oc3cc(OCCCN4CCCC4)ccc3C2=O)cc(OC)c1,3.54,16.4 µM,10.5,22.4,7.16,19.8 µM,12.5,25.4 µM,4.52,18.1,,,2.88,10.6 µM,12.9,26.1 µM,3.31,13.4 µM,2.6,6.66 µM
Cc1cc(=O)n2c3c(c4c(cc13)c(CO)cc(=O)n4C)OC2,,> 100 µM,,,,> 100 µM,,72.3 µM,,,,> 100,,> 100 µM,,> 100 µM,,> 100 µM,,
COc1cc2nc(-c3ccc(Cl)cc3)cc(OCCCN3CCCC3)c2cc1OC,0.303,4.15 µM,2.72,10.8,3,22.6 µM,1.03,13.7 µM,1.76,10.3,,,1.22,2.94 µM,2.42,15.3 µM,3.14,14.6 µM,2.72,8.33 µM
